How the values were obtained:
[1] = test system: human liver carcinoma HepG2 cells; experiment: MTT cytotoxicity assay against HepG2 cells; type: cell-based; settings: for Structure–activity summary of cytotoxic activity (Fig. 4B) / IC50: HepG2 cells; for IC50: MTT, 24 h treatment
Protocol: To assess the antitumor properties of these compounds, we utilized the 3-(4,5-dimethylthiazol-2-yl)-2,5-diphenyl tetrazolium bromide (MTT) colorimetric assay, a widely used method to evaluate cell viability and cytotoxicity.
Following the incubation period, the cells were subjected to various concentrations of the prepared molecules and subsequently incubated for a duration of 24 h. […] Subsequently, a volume of 100 μL of dimethyl sulfoxide (DMSO) was introduced into each well in order to facilitate the dissolution of the purple formazan that had been generated. The quantification of the color intensity of the formazan product, which serves as an indicator of the cellular growth condition, is performed by employing an ELISA plate reader set at a wavelength of 570 nm. The experimental conditions were implemented with a minimum of three replicates, and the experiments were conducted on at least three separate occasions.

Row | Compound | Structure–activity summary of cytotoxic activity (Fig. 4B) [1] | IC50 [1] [µM] | IC50 ([1]; Homo sapiens, HepG2, 24 h) [µM] | HepG2-Cell Viability (%) ([1]; concentration LogC 0.19 (µM)) | HepG2-Cell Viability (%) ([1]; concentration LogC 0.8 (µM)) | HepG2-Cell Viability (%) ([1]; concentration LogC 1.4 (µM)) | HepG2-Cell Viability (%) ([1]; concentration LogC 2 (µM)) | HepG2-Cell Viability (%) ([1]; concentration LogC -0.41 (µM)) | melting point [°C]
1 | COc1cccc2cc(C(N)=O)c(=O)oc12 [Compound 4, 8-Methoxycoumarin-3-carboxamide] | moderate activity | 17.2 ± 1.05 | 17 | 65.8±1.73 | 57.78±2.46 | 47.29±3.09 | 37.94±2.75 | 75.81±1.48 | 253
2 | COc1cccc2cc(C(=O)NC(C)=O)c(=O)oc12 [Compound 6, N-acetyl 8-methoxycoumarin-3-carboxamide] | moderate activity |  |  | 54.47±1.72 | 44.64±1.98 | 37.53±2.14 | 27.04±2.87 | 59.86±1.33 | 285
3 | COc1ccc(Br)c2cc(C(=O)NC(C)=O)c(=O)oc12 [Compound 7, N-acetyl 5-bromo-8-methoxycoumarin-3-carboxamide] | improved activity | 2.57 ± 0.16 | 2.3 | 68.52±2.36 | 60.52±2.64 | 53.19±2.87 | 45.03±3.1 | 77.18±1.73 | 220
4 | COc1cccc2cc(C(=O)O)c(=O)oc12 [Compound 8, 8-methoxycoumarin-3-carboxylic acid] | moderate activity | 5.18 ± 0.31 | 5 |  |  |  |  |  | 186
5 | COc1ccc(Br)c2cc(C(=O)O)c(=O)oc12 [Compound 9, 5-Bromo-8-methoxycoumarin-3-carboxylic acid] | attenuated activity | 41.6 ± 2.52 | 41 | 66.86±1.86 | 55.34±2.24 | 50.19±3.07 | 42.17±2.94 | 73.23±1.47 | 210

Source: PMC10693084, “Novel 8-Methoxycoumarin-3-Carboxamides with potent anticancer activity against liver cancer via targeting caspase-3/7 and β-tubulin polymerization” (BMC Chemistry, 2023)
